Laboratory results as given in US10561723B2, “Treatment and prevention of anal conditions” (priority 2015, dated 2020).
Entries after “also recorded” stand apart in the source; their conditions may differ.

What was measured:
[1] = tested on: anal intraepithelial neoplasia (AIN); assay: High resolution anoscopy (HRA) with biopsies, case report Example 1; format: in vivo, human
Description: (§1) Case Report Summary: A HIV negative patient with multifocal AIN 2 and AIN 3 in the anal transitional zone was enrolled. The patient was treated with intra-anal imiquimod followed by an intramuscular dose of HPV4 followed by four perianal HPV4 immunizations, each separated by 3-4 weeks. The patient was screened for high risk (HR) HPV DNA on a weekly basis and had multiple biopsies to identify possible dysplasia.
(§2) Detailed Data and Results: A HIV negative person presented for routine health care. […] Patient was referred for HRA. […] 5, 2014. Biopsies indicated the following: distal AIN 1 at three o'clock; AIN 1 at 4 o'clock; AIN 2 at 7 o'clock; AIN 2 at 10 o'clock; and AIN 2 at 12 o'clock. FIGS. 1B and 1C are posterior and anterior views, respectively, showing circumferential staining of the anal canal. Patient received the first immunization with qHPV vaccine IM in the deltoid on Nov. 13, 2014. On Dec. 1, 2014, the patient received the first perianal qHPV vaccine. They started to use 5% imiquimod on Dec. 1, 2014 with one packet applied intra-anally three times weekly.

[2] = tested on: HPV DNA / AIN; details: cited from earlier work
[3] = tested on: anal intraepithelial neoplasia (AIN); assay: HRA with biopsies, case report Example 3; format: in vivo, human; details: Ex.3; for anal dysplasia, overall outcome of immunotherapy protocol: 5% imiquimod cream with perianal HPV-9 immunizations followed by 4-5 months of 2-3 times weekly intra-anal 5% 5-fluorouracil cream
From the text: (§3) Case Report Summary: The patient is a HIV positive gay with chronic HIV infection who presents with recurrent high grade squamous intraepithelial lesion (HSIL) post multiple ablative treatments. The patient received treatment for their HIV disease with a combination of anti-retroviral medicatons (abacavir, etravirine, prezista and ritonavir which was later modified to dolutegravir, etravirine and prezista and ritonavir). Over the past two years the CD4 count has been in the range of 250-350 and there has been low level HIV viremia (40-400 copies range per ml of plasma) due to intermittent adherence. The patient has other co-morbid conditions including hepatitis C, hypertension, hyperlipidemia, osteoporosis, and high risk sexual activity.
(§4) May 29, 2015 Discussed immunotherapy for recurrent HSIL after failing ablative therapies described above. Patient received HPV-9 vaccine intramuscular in the deltoid. This is the start of the immunotherapy protocol. Patient starts the intra-anal application of 5% imiquimod cream three times per week.
(§5) Jan. 15, 2016 4th perianal HPV-9 vaccination given. Discontinue 5% intra-anal imiquimod cream and begin 5% 5-fluorouracil cream intra-anally three times a week for 20 weeks.

[4] = tested on: HPV other high risk types; assay: Anal HPV typing/assay, case report Example 3; format: in vivo, human
From the text: as §3, §4, §5

[5] = tested on: anal dysplasia; assay: Anal pap smear cytology, case report Example 3; format: in vivo, human; details: Ex.3, imiquimod + HPV-9 vaccine
From the text: as §3, §4, §5

[6] = Tolerability, case report Example 1; format: in vivo, human; details: Ex.1; intra-anal 5% imiquimod 3x/wk; resolved, restarted after several days to one week
From the text: On Dec. 29, 2014 the patient was again examined and had ASCUS anal pap smear. The anal pap was negative for high risk HPV types. […] The erythema and discomfort resolved and imiquimod was restarted after a period of several days to one week. On Jan. 27, 2015 the anal pap smear was normal and negative for high risk HPV DNA. They received the third perianal qHPV vaccine.

[7] = tested on: high risk (HR) HPV DNA; assay: Anal pap high risk HPV DNA screen, case report Example 1; format: in vivo, human
Description: as §1, §2

[8] = Side effects, case report Example 3; format: in vivo, human; details: Ex.3; for most notable side effects of the immunotherapy protocol: 5% imiquimod cream and 5% 5-fluorouracil cream intra-anally, resolved on brief cessation or reduced frequency
From the text: Aug. 7, 2015 HRA done and biopsies taken. […] Pt told to wait until irritation has abated before continuing the imiquimod cream treatments. First perianal HPV-9 vaccination given.
The above case report represents a case of recurrent anal HSIL status post multiple ablative procedures. The patient has HIV infection and thus is moderately immunosuppressed. In spite of the immunosuppression, the patient was able to clear not only HSIL (AIN 2 and AIN 3) but also was able to clear LSIL (AIN 1). The presence of a normal anal pap smear result on Jun. […] 20, 2016. […] It is presumed that the use of the 5-fluorouracil cream treated nests of dysplastic cells that if not treated would likely lead to recurrent LSIL or HSIL. Thus, the immunotherapy protocol may be useful for patients in a salvage situation who have failed multiple ablative procedures with recurrent HSIL in the setting of immunosuppression due to HIV infection. […] This might be due to the immunosuppression secondary to chronic HIV infection.

[9] = tested on: anal dysplasia; assay: Anal pap smear cytology, case report Example 1; format: in vivo, human
Description: as §1, §2

[10] = tested on: hepatitis C, genotype 1; assay: Hepatitis C treatment of the Example 3 patient; format: in vivo, human; details: Ex.3 patient; 12 weeks of treatment; 12 weeks post completion of therapy
[11] = Ex.1 HIV negative male with AIN 2/3, intra-anal 5% imiquimod 3x/wk + qHPV (HPV4) vaccine (IM, then 4 perianal)
[12] = Ex.1, imiquimod + qHPV vaccine, Dec. 11, 2014
[13] = Ex.1, imiquimod + qHPV vaccine, Dec. 29, 2014
[14] = Ex.1, imiquimod + qHPV vaccine, Feb. 10, 2015
[15] = Ex.1, imiquimod + qHPV vaccine, Feb. 25, 2015
[16] = Ex.1, imiquimod + qHPV vaccine, Jan. 27, 2015
[17] = Ex.1, imiquimod + qHPV vaccine, Pathology Report I
[18] = Ex.1, imiquimod + qHPV vaccine, Pathology Report II (Feb. 25, 2015)
[19] = imiquimod + HPV-9 vaccine, then intra-anal 5% 5-fluorouracil cream from Jan. 15, 2016, Apr. 21, 2016
[20] = imiquimod + HPV-9 vaccine, then intra-anal 5% 5-fluorouracil cream from Jan. 15, 2016, Jun. 20, 2016
[21] = then intra-anal 5% 5-fluorouracil cream from Jan. 15, 2016, Jun. 20, 2016

CC(C)Cn1cnc2c(N)nc3ccccc3c21 [imiquimod, 3-(2-Methylpropyl)-3,5,8-triazatricyclo[7.4.0.0^2,6]trideca-1(9),2(6),4,7,10,12-hexaen-7-amine]
anal dysplasia, overall outcome [1, 11]: resolution of anal dysplasia
HRA biopsies histology [1, 12]: AIN 1 at 4 o'clock; AIN 2 at 7 o'clock and AIN 3 at 12 o'clock
HRA biopsies histology [1, 13]: AIN 2 at 7 o'clock and focal AIN 1 at 12 o'clock
HRA biopsies histology [1, 14]: normal histology at 4, AIN 1 at 10 and small focal AIN 2 at 12 o'clock
anoscopist's observation of anal canal epithelium [1, 15]: remodeling of the anal canal epithelium, replacing thickened dysplastic epithelium with thin, translucent epithelium, which is normal
biopsies at 2, 6, 10 and 12 o'clock [1, 16]: all normal without evidence of dysplasia
biopsy diagnosis, anal canal 4 o'clock (transition zone) [1, 17]: no evidence of dysplasia or malignancy
biopsy diagnosis, anal canal 10 o'clock (transition zone) [1, 17]: AIN 1
biopsy diagnosis, anal canal 12 o'clock (transition zone) [1, 17]: AIN 2
biopsy diagnosis, anal canal 5 o'clock [1, 18]: no evidence of dysplasia or malignancy
biopsy diagnosis, anal canal 7 o'clock [1, 18]: no evidence of dysplasia or malignancy
biopsy diagnosis, anal canal 10 o'clock [1, 18]: no evidence of dysplasia or malignancy
biopsy diagnosis, anal canal 12 o'clock [1, 18]: no evidence of dysplasia or malignancy
developed recurrent AIN ([2]; after intra-anal 5% imiquimod cream, mean follow up approximately 30 months, often HPV types differing from start): 5 patient
HPV DNA viral loads ([2]; intra-anal 5% imiquimod cream three times weekly for 16 weeks, 19 HIV positive men with AIN): decreased
anal dysplasia, overall outcome of immunotherapy protocol [3]: clearance of anal dysplasia (AIN 1, AIN 2 and AIN 3)
HRA biopsies histology ([3]; imiquimod + HPV-9 vaccine IM, Aug. 7, 2015): 3 o'clock—AIN 2; 4 o'clock—AIN 1; 9 o'clock—AIN 1; 10 o'clock distal—AIN 1; 12 o'clock AIN 2
HRA biopsies histology [3, 19]: 3 o'clock—AIN 1; 5 o'clock—AIN 1; 6 o'clock—AIN 1; 9 o'clock—AIN 1; 10 o'clock—benign; 12 o'clock—benign
HRA biopsies histology [3, 20]: 3 o'clock—benign; 9 o'clock—benign anal mucosa; 10 o'clock—benign anal mucosa; 12 o'clock—benign anal mucosa
HRA biopsies histology ([3]; imiquimod + HPV-9 vaccine, Dec. 9, 2015): 3 o'clock AIN—1; 6 o'clock—AIN 1; 9 o'clock—benign
HRA biopsies histology ([3]; imiquimod + HPV-9 vaccine, Oct. 28, 2015): 1 o'clock—AIN 1; 4 o'clock—benign; 9 o'clock—AIN 1; 12 o'clock—AIN 1
HRA biopsies histology ([3]; imiquimod + HPV-9 vaccine, Sep. 30, 2015): 3 o'clock—AIN 1; 4 o'clock—AIN 1; 9 o'clock—AIN 1; 10 o'clock—AIN 1; 12 o'clock—benign
HPV typing ([4]; Ex.3 HIV positive male, recurrent HSIL after ablative treatments, intra-anal 5% imiquimod 3x/wk + HPV-9 vaccine IM (May 29, 2015), Aug. 7, 2015): positive for other high risk types
HPV assay ([4]; Ex.3, imiquimod + HPV-9 vaccine (IM, 1 perianal), Sep. 30, 2015): continued presence of other HPV high risk types
anal pap cytology [5, 21]: negative for intraepithelial lesion and malignancy
anal pap cytology ([5]; Oct. 28, 2015): atypical cells of undetermined significance (ASCUS)
anal pap cytology ([5]; Sep. 30, 2015): LSIL
local adverse effect leading to interruptions of imiquimod cream [6]: increased perianal erythema
HR HPV DNA, overall outcome [7, 11]: loss of HR HPV DNA including HPV16
anal pap high risk HPV DNA [7, 12]: negative
anal pap high risk HPV types [7, 13]: negative
anal pap high risk HPV DNA [7, 14]: negative
HPV DNA [7, 15]: negative
anal pap high risk HPV DNA [7, 16]: negative
most notable side effects of the immunotherapy protocol [8]: anal and perianal irritation
patient complaints due to imiquimod cream treatments ([8]; intra-anal 5% imiquimod cream 3x/wk, Aug. 7, 2015): anal irritation and spotting of blood per anus
anal Pap smear, overall outcome [9, 11]: normalization of the anal Pap smear from ASCUS
anal pap smear cytology [9, 13]: ASCUS
anal pap cytology ([9]; Ex.1, imiquimod + qHPV vaccine, Feb. 10, 2015 (Pathology Report I concurrent pap)): normal; also recorded: negative for intraepithelial lesion and malignancy
anal pap smear cytology ([9]; Ex.1, imiquimod + qHPV vaccine, Feb. 25, 2015 (Pathology Report II concurrent pap)): normal; also recorded: negative for intraepithelial lesion and malignancy
anal pap smear cytology [9, 16]: normal

O=c1[nH]cc(F)c(=O)[nH]1 [5-fluorouracil]
anal dysplasia, overall outcome of immunotherapy protocol [3]: clearance of anal dysplasia (AIN 1, AIN 2 and AIN 3)
HRA biopsies histology [3, 19]: 3 o'clock—AIN 1; 5 o'clock—AIN 1; 6 o'clock—AIN 1; 9 o'clock—AIN 1; 10 o'clock—benign; 12 o'clock—benign
HRA biopsies histology [3, 20]: 3 o'clock—benign; 9 o'clock—benign anal mucosa; 10 o'clock—benign anal mucosa; 12 o'clock—benign anal mucosa
anal pap cytology [5, 21]: negative for intraepithelial lesion and malignancy
most notable side effects of the immunotherapy protocol [8]: anal and perianal irritation

CCN(CC)CC(=O)Nc1c(C)cccc1C [lidocaine]
burning at the site of HPV vaccination ([8]; local infusion of 1% lidocaine prior to perianal HPV-9 vaccinations): much less burning

sofosbuvir/ledipasvir
virologic response [10]: sustained virologic response
